“Also recorded” adds a separate entry of the source.
Experiments:
[1] = Eosin Y bleaching with borates in ethanol; settings: 1 mM borate, 2 min irradiation, 100 W halogen lamp
Description: To a 2 mL solution of Eosin in ethanol (2.5×10^-5M solution), 2 mL of 1 mM of anionic borate (MBB), a neutral borate a, (Formula I) or a neutral borate b (Formula I) were added and the solution was irradiated for 1-2 minutes using 100 W halogen lamp. Absorbance at λmax of dye was measured to monitor photobleaching, and the results were plotted, as is shown in the bar graph plot of FIG. 7.

[2] = Stability of solid borate on exposure to air (1H NMR, colour)
[3] = Eosin Y bleaching with borates in water; settings: aqueous solution; in Example 2A 0.5 mM borate, 1 minute, 100 W halogen lamp
Description: To a 2 mL solution of Eosin in water (2.26×10^-5M solution), 2 mL of 0.5 mM of cationic Borate (e′), Cationic Borate (f′) or anionic borate (MBB) were added, and the solution was irradiated for 1 minute using 100 W halogen lamp. […] FIG. 6 is a bar graph comparing bleaching kinetics of eosin by different borates MBB (a), e′ (b), and f′ (c).

[4] = Cy3 dye bleaching with borates in ethanol; settings: 1 mM borate, 1 minute, 100 W halogen lamp, absorbance at 552 nm
Description: To a 2 mL solution of previously hydrolyzed Cy3 bisreactive dye (GE Healthcare) in ethanol (2.5×10^-5M solution), 2 mL of 1 mM solution of one of the following borates: anionic borate (MBB), neutral borate, a or b (Formula I), and cationic borates e′ or f′ in ethanol was added. Samples were irradiated for 1 minute using 100 W halogen lamp. The decrease in Cy3 absorbance at 552 nm was measured to monitor photobleaching, and the results were plotted, as is shown in FIG. 8. The bar graph compares the bleaching kinetics of Cy3 by different borates in ethanol.

[5] = Cy3 bleaching with borates in water; settings: aqueous solution; in Example 2D 0.5 mM borate, 100 W halogen lamp, absorbance at 552 nm
Description: To a 2 mL solution of previously hydrolyzed Cy3 bis reactive dye in water (3.4×10^-5M solution), 2 mL of 0.5 mM solution of anionic borate (MBB), cationic borate (e′) or cationic borate (f′) were added and the solution was irradiated. […] FIG. 10 is a bar graph comparing bleaching kinetics of Cy3 by different borates.

[6] = Charge transfer complex formation between Eosin-Y and cationic borate (UV-Vis titration); type: physicochemical; settings: without irradiation
Description: A 50 ul of 1 mM eosin solution in water was further diluted to 3 ml with water and to this was added 1 mM solution of f′ (Formula I) in water in 25 ul portions. UV-Vis spectrum was acquired after every 25 μL f′ addition.
This is believed to be due an electrostatic charge-transfer complex formulation between cationic borate: eosin-y complex.
This phenomenon may be attributed to formation of charge-transfer complex between anionic Eosin-Y and cationic Borate. The electrostatic charge transfer formation is responsible for quenching of Eosin-Y fluorescence.

[7] = Residual eosin bleaching (PICB) in H&E stained tissue sections; parameters: species or system Human; settings: 0.15 mM f′, irradiation in presence of DABCO, three cycles
Description: Human breast tissue array samples were obtained as tissue slides embedded in paraffin from Clarient (Huntsville, Ala.). Slides were baked at 60° C. for 15 minutes and then washed with xylene (1×10 min) to remove paraffin.
All the slides were stained with hematoxylin and eosin and coverslipped following the standard procedures in the literature (IHC World LLC, Protocol Database, Hematoxylin and Eosin (H&E) Staining Protocol). After staining, the images were obtained as described below.
Bright field and Fluorescence images were taken for all the slides using Leica bright field microscope and Olympus IX81 fluorescence microscope (Olympus Co., Tokyo, Japan respectively. For fluorescence imaging the following excitation filters were used: eosin 500/40 nm, Cy3 550/40 nm and Cy5 650/40 nm.
After imaging, samples were decoverslipped by incubation in xylenes overnight and hydrated by washing in four solutions of ethanol with concentrations decreasing in the order of 100%, 95%, 70%, and 50% followed by a wash with 1× phosphate buffer saline (PBS, pH 7.4). After rehydration, the slides were washed with 1×PBS. A ten minute incubation in 0.3% Triton X-100 in PBS was performed for membrane permeabilization of the tissue, followed by a wash with 1×PBS.
Hydrated slides were treated with dual-buffer heat-induced epitope retrieval. […] Slides were imaged by brightfield and fluorescence microscopy. […]

[8] = tested on: Her2/CEP17 DNA FISH signal; assay: DNA FISH signal bleaching and FISH on PICB bleached slides; parameters: species or system Human
Description: Slides were H&E stained and bleached as described above. Alternatively previously imaged and archived H&E slides were processed through the steps of decoverslipping, hydration, antigen retrieval, blocking and bleaching with f′ as described above for freshly stained H&E slides.
Slides were immersed in a pre-warmed 0.1% pepsin solution for 8 minutes then placed in room temperature PBS for 2 minutes. Samples were re-fixed in 4% formalin for 10 minutes then washed 2×5 minutes in PBS. Slides were dehydrated in ethanol series 50%, 70%, and 95%, 2 minutes each and allowed to dry on bench top for 10 minutes. Pre-mixed dual Her2/CEP17 probe was vortexed, spun, and added to samples. Samples were coverslipped and sealed with a rubber sealant per usual practice. After allowing rubber cement to cure for 10 minutes, probes were hybridized in Thermobrite cycler: 80° C. denaturation for 10 minutes followed by 37° C. incubation overnight. Rubber cement was removed and slides were decoverslipped in preheated 37° C. 2×SSC for 5 minutes. […] Slides were washed 2×2 minutes with 2×SSC, removed from buffer to dry, coverslipped with 4% DABCO in 90% glycerol/2×SSC, and imaged on an Olympus IX81 fluorescence microscope using a 40× objective with following exposure times: for DAPI (2 ms), spectrum green (CEP17-200 ms), and spectrum orange (Her2-400 ms). […]

SMILES	order of Eosin photobleaching kinetics [1]	time to evidence of decomposition ([2]; exposure to air) [min]	colour change on exposure to air ([2]; white solid stored inertly)	Eosin-Y photobleaching compared to anionic borate (MBB) [3]	Cy3 bleaching kinetics [4]	Cy3 bleaching kinetics compared to anionic borate (MBB) [5]	bathochromic (red-shift) of the Eosin-Y peak ([6]; 1 mM f′ added in 25 ul portions to eosin in water)	colour change of eosin solution on borate addition ([6]; water)	bleaching of residual eosin signal in tissue [7]	bleaching of DNA FISH signal [8]	decomposition ([2]; after 2 months of exposure to air) [%]	degradation by 1 HNMR ([2]; solid form, exposure to air for over 5 weeks)
c1ccc(C[B-](c2ccccc2)(c2ccccc2)c2ccccc2)cc1 [MBB, monobenzyltriphenyl borate, reference compound]	cationic>neutral>anionic	< 10	becoming yellow in color immediately on exposure to air	–	–	–	–	–	–	–	–	–
COS(=O)(=O)[O-].C[N+](C)(C)c1ccc([B-](c2ccc([N+](C)(C)C)cc2)(C2CCCC2)C2CCCC2)cc1 [f′]	cationic>neutral>anionic	–	–	significantly improved	performed well	significantly improved; also recorded: much faster bleaching kinetics	518 nm shifts to 523 nm	clear change in color to non-fluorescent pink	efficient bleaching; also recorded: efficiently bleach eosin; also recorded: effective bleaching; also recorded: mostly removed	erased	~2	no degradation
C[N+](C)(C)c1ccc([B-](c2ccc([N+](C)(C)C)cc2)(C2CCCC2)C2CCCC2)cc1.[I-] [e′]	cationic>neutral>anionic	–	–	improved	performed well	much faster bleaching kinetics	–	–	–	–	–	–
